Where two headings read alike, the source gives them in different places.
Legend:
aldosterone synthesis = assay: Example C: aldosterone level and hyperaldosteronism; format: in vivo, human
Text: Hyperaldosteronism is a disorder with several serious clinical symptoms including hypertension, hypokalemia, fatigue, headache, muscle weakness and numbness.

[1] = tested on: metastatic castration-resistant prostate cancer (mCRPC) patients; settings: cited from earlier work
[2] = Body weight and tolerability in the Mini-PDX study; format: in vivo
Procedure: During the study, the care and use of animals were conducted in accordance with the regulations of the Association for Assessment and Accreditation of Laboratory Animal Care (AAALAC). After Mini-PDX device inoculation, the animals were checked daily for morbidity and mortality. At the time of routine monitoring, the animals were checked for any effects of treatments on normal behavior such as mobility, visual estimation of food and water consumption, body weight gain/loss, eye/hair matting and any other abnormal effect.
The body weight of mice was measured every day, and relative change of bodyweight was calculated for each mouse according to the following formula: RCBW(%)=(BWi−BW0)/BW0×100, BWi is the body weight after treatment on a given day, BW0 is the bodyweight on the first day of treatment.

SMILES	aldosterone level vs baseline (aldosterone synthesis; baseline to Day 1 of Cycle 3, except Day 1 of Cycle 2 (similar to baseline), combination therapy)	clinical symptoms of hyperaldosteronism (aldosterone synthesis; during treatment with the combination therapy)	unconfirmed rate of ≥50% PSA decline from baseline ([1]; chemotherapy-naive mCRPC patients (32 of 124)) [%]	unconfirmed rate of ≥50% PSA decline from baseline ([1]; mCRPC patients with previous chemotherapy (16 of 57)) [%]	tolerability in the animals ([2]; afuresertib 75 mg/kg, CFG920 300 mg/kg)	Average RCBW (%)/Day 6 ([2]; relative change of body weight from day 0, afuresertib 75 mg/kg QD, CFG920 300 mg/kg BID) [%]
Cc1ccncc1N1CCN(c2ccnc(Cl)c2)C1=O [CFG920, 1-(2-chloro-pyridin-4-yl)-3-(4-methyl-pyridin-3-yl)-imidazolidin-2-one]	lower than the baseline level	did not cause any clinical symptoms of hyperaldosteronism	26	28	–	–
Cn1ncc(Cl)c1-c1cc(C(=O)N[C@H](CN)Cc2cccc(F)c2)sc1Cl [afuresertib, N-{(1S)-2-amino-1-[(3-fluorophenyl)methyl]ethyl}-5-chloro-4-(4-chloro-1-methyl-1H-pyrazol-5-yl)-2-thiophenecarboxamide]	–	–	–	–	tolerated well	−8.73

Source: patent publication US20250090514A1, “METHOD OF TREATING CANCER” (Laekna Limited, priority 2019, published 2025)
